According to patent EP0567205A1, “Use of opiate antagonists in the manufacture of agents for the diagnosis and therapy of hypothalamic function disorders” (Ferring Arzneimittel GmbH, priority 1986, dated 1988):
“Also recorded” adds a separate entry of the source.

Tests used:
[1] = test system: Patientinnen, die an hypothalamischer Amenorrhoe litten; assay: Naltrexon administration to patients with hypothalamic amenorrhea (serial blood sampling for LH, FSH, prolactin and ovarian steroids; ultrasound); type: in vivo
Text: Im Rahmen der vorliegenden Erfindung wurden Untersuchungen an Patientinnen mit hypothalamischer Amenorrhoe durchgeführt. Diese Untersuchungen haben überraschenderweise gezeigt, daß durch die Gabe des Opiat-Antagonisten Naltrexon eine Zunahme von Frequenz und Amplitude der LH und FSH Sekretion erreicht wird. Es kann daher davon ausgegangen werden, daß die endogene GnRH Sekretion durch den Opiat-Antagonisten vermehrt wird.
Die basale Gonadotropin Sekretion von Patientinnen, die an hypothalamischer Amenorrhoe litten, wurde durch Bestimmung von LH und FSH, Prolactin und Ovarien-Steroiden in ßlutproben bewertet, die alle zehn Minuten während 24 Stunden entnommen wurden. Naltrexon wurde dann in einer Dosis von 50 mg pro Tag während 24 oder 28 Tagen verabreicht. 5 Tage und 14 Tage nach dem Beginn der Naltrexonverabreichung wurden wiederholte Blutproben entnommen. An den übrigen Tagen wurden täglich Blutproben entnommen und es wurde eine Ultraschalluntersuchung nach der Naltrexonverabreichung sowie einige Tage danach durchgeführt. Es wurden folgende Ergebnisse ermittelt:
Auf die Verabreichung von Naltrexon folgte eine Zunahme der Frequenz und der Amplitude der pulsatielen Gonadotropin Sekretion sowie eine Zunahme der mittleren LH und FSH Serumkonzentration sowie der Entwicklung der Gonaden-Steroid Sekretion und der Follikel, was durch Ultraschall festgestellt wurde.

[2] = general statement on the known drug; oral administration possible; cited from earlier work
[3] = hypothalamic amenorrhea, 50 mg pro Tag während 24 oder 28 Tagen
[4] = patients with hypothalamic amenorrhea, summary statement

O=C1CC[C@@]2(O)[C@H]3Cc4ccc(O)c5c4[C@@]2(CCN3CC2CC2)C1O5 (stereo partly drawn) [Naltrexon, 17-(Cyclopropylmethyl)-4,5-epoxy-3,14-dihydroxymorphinan-6-on]
Entwicklung der Follikel ([1]; by ultrasound, hypothalamic amenorrhea, 50 mg pro Tag während 24 oder 28 Tagen): Zunahme
Amplitude der pulsatielen Gonadotropin Sekretion [1, 3]: Zunahme
Entwicklung der Gonaden-Steroid Sekretion [1, 3]: Zunahme
Frequenz der pulsatielen Gonadotropin Sekretion [1, 3]: Zunahme
mittlere FSH Serumkonzentration [1, 3]: Zunahme
mittlere LH Serumkonzentration [1, 3]: Zunahme
Menstruation nach Absetzen des Mittels ([1]; patients who menstruated after withdrawal, hypothalamic amenorrhea, 50 mg pro Tag während 24 oder 28 Tagen): Sämtliche Patientinnen menstruierten
Ovulation ([1]; patients who ovulated, hypothalamic amenorrhea, 50 mg pro Tag während 24 oder 28 Tagen): führte zur Normalisierung der Gonadotropin-Sekretion, zur Ovulation; also recorded: Eine von 3 Patientinnen ovulierte
Bildung eines Corpus luteum [1, 4]: zur Bildung eines Corpus luteum
Gonadotropin-Sekretion [1, 4]: Normalisierung
menstrueller Zyklus [1, 4]: Normalisierung
Verweildauer im Plasma [2]: lange
